Measurements: US9334256B2, “Agents and methods for treating ischemic and other diseases” (NoNO INC., priority 2011, dated 2016)

What was measured:
TRPM7 [1] = target: T1, TRPM7 (Mus musculus, UniProt Q923J1); test: PI uptake cell death assay in TRPM7-expressing HEK-293 cells (type of assay from Example 1); format: cell-based, murine
T1 construct: expressed in transfected cells; host or cells: HEK-293 tSA (HEK-293T) cells, transient transfection with Lipofectamine 2000
Description: The TRPM7 channel provides a pathway for mono- and divalent cations into the cell, and is unique in that it contains a functional C-terminal α-kinase domain. […] The induction of chemical anoxia in host cells such as recombinant HEK293 cells can be used to activate TRPM7. This activation is detectable with the use measurements of cellular calcium accumulation. This is achievable with the use of a fluorescent calcium indicator. Alternatively, this activation can also be measured using radiolabelled Ca2+ (^45Ca^2+) as described previously by Sattler et al. (Sattler et al., 1998) and Aarts et al. (Aarts et al., 2003).
Hoechst 33342 was purchased as a 10 mg/mL solution in water (Molecular Probes Inc., Eugene, Oreg.). Propidium iodide (PI) was purchased as a powder and prepared by dissolving in PBS at 1 mg/mL. PI solutions were stored at 4° C. until use. Hoechst and PI were added directly to cell culture to 5 μg/mL and 10 μg/mL respectively. Cells were incubated at room temperature or at 37° C. for 10 minutes to allow for adequate uptake, and fluorescence observed using a NIKON Eclipse TE2000 inverted microscope and TE-FM Epi-Fluorescence attachment (Nikon Canada).
Untransfected cells or cells transfected with the TRPM7/pTracer or ΔPDZ/pTracer construct were plated onto 24-well plates, 24-hours post-transfection. Untransfected cells were plated at 0.75×10^6 cells/well and transfected cells at 1×10^6 cells/well. The plates were coated with poly-D-lysine to strengthen cell adhesion and to minimize cell loss during washes. Cells were loaded by incubation with 5 μM fluo-3 AM and 0.02% pluronic in HBSS at 37° C. for 30 minutes. Following loading, cells were washed with an aglycaemic HBSS containing, in mM: 20 N-methyl-D-glucamine (NMDG), 121 NaCl, 5 KCl, 10 HEPES acid, 10 HEPES-Na salt, 3 NaHCO3, 1 Na-pyruvate, and 1.8 CaCl2, pH adjusted to 7.4 with HCl. Calcium uptake, as assessed by fluo-3 fluorescence, was measured in response to 0, 5, 10, 15, 20, or 25 mM sodium cyanide (NaCN; Mallinckrodt Baker Inc., Phillipsburg, N.J.) dissolved in aglycaemic HBSS. A 250 mM NaCN stock was prepared in water and stored at room temperature for up to 2 weeks. Measurements of fluo-3 fluorescence were taken over a 2 hour period at 10 minutes intervals at room temperature (22-25° C.). Calcium uptake assays were performed 48 hours post-transfection.
Cell death, as assessed by PI uptake, was examined at the end of the 2 hour calcium uptake assay. Cells were stained with 10 μg/mL PI and PI fluorescence measured using the Fluoroskan microplate reader (λ excitation=590 nm, λ emission=630 nm) and accompanying Ascent software (Thermo Electron Corp.). To obtain a reading of maximal fluorescence (Fmax), 0.5% Triton X-100 was added to each well and allowed to incubate for 20 minutes. Cell death assays were performed 48 hours post-transfection.
Data was entered into Excel (Microsoft, Seattle, Wash.) or SigmaPlot (SPSS Inc., Chicago, Ill.) for analysis. Pooled data are presented as the mean of at least 3 separate experiments±sem. Calcium uptake is expressed as a fraction of baseline uptake: ΔFt=(Ft−Fo)/Fo where Ft is the fluorescence at time t, and Fo is the fluorescence at baseline. Cell death is expressed as a percentage of total cell death: cell death (%)=Ft/Fmax×100 where Ft is the fluorescence at time t and Fmax is the maximal fluorescence obtained by permeabilization with Triton X-100. Concentration-response curves were fit by nonlinear regression with a 4 parameter logistic curve represented by the following equation: y=min+{(max−min)/[1+(x/EC50)n]} where y is the response at concentration x, min is the minimal response, max is the maximal response, EC50 is the concentration required for half-maximal response, and n is the Hill slope. Statistical analysis of data was carried out with a two-tailed Student's t test, or a one-way analysis of variance (ANOVA) followed by post hoc pairwise multiple comparisons testing using the Holm-Sidak method, where appropriate. […]

TRPM7 ion channel = target: T2, TRPM7 ion channel (Mus musculus, UniProt Q923J1); test: Whole-cell patch clamp of TRPM7 currents in HEK293 cells; format: cell-based; conditions: value shown = concentration at which the compound significantly inhibits the ion channel
T2 construct: expressed in transfected cells; host or cells: TRPM7-tet-on HEK293 cells
Description: To further understand the structure function relationships between the TRPM7 inhibitors identified in the TRPM7-dependent HEK death assay, the activity of a subset of these inhibitors described herein were tested for their ability to inhibit TRPM7 currents in cell systems. Whole-cell patch clamp recordings were used essentially as described to test the TRPM7 inhibitors in HEK293 cells, H9c2 cardiomyocytes and cultured neurons. […] Those that provide >10% inhibition of TRPM7 channel activity in the HEK293 cell system were labeled with the concentration tested (generally 5 uM). Thus, the compounds in this table marked with such a value are able to block the activity gof the TRPM7 ion channel. FIGS. 2A-C provide an example of this for the TRPM7 inhibitor 399 (Structure 9). […] Numbers in brackets indicate the number of independent tests, and the bars represent the SEM.
Whole-cell currents were recorded using an Axopatch 1D or MultiClamp 700B amplifier and were digitized at 10 kHz and low-pass filtered at 2 kHz, at room temperature. pClamp10 software was used for data acquisition and analysis. Patch electrodes were pulled from Borosilicate glass and fire polished to a resistance of 2-4 MΩ. All drugs were administrated directly to cell bodies under recording through the fast exchange perfusion system.
The intracellular solution (ICS) contains (mM) 145 Cs-methanesulfonate, 8 NaCl, l MgCl2, 4.1 CaCl2, 10 EGTA, and 10 HEPES, 5 ATP, pH at 7.4, with 300-305 mOsm. The extracellular solution (ECS) contains (mM) 140 NaCl, 5 KCl, 2 CaCl2, 20 HEPES, and 10 glucose, pH at 7.4 and with 315-320 mOsm.
Voltage stimuli lasting 250 ms were delivered at 5-s intervals with voltage ramps ranging from −100 to +100 mV. The current values at −80 mV and +80 mV on I-V curve represent the measures of inward and outward current respectively.
(§1) Table X and FIGS. 7-51 show screening data for several additional compounds that are variants of M5, M6 or M21. The synthesis of compounds of Table X and FIGS. 7-51 is shown in Appendices A-C. The compounds shown in FIGS. 7-51 can be related to the appropriate row of Table X by the compound number shown in the figures and in the first column of Table X. The compounds in Table X other than M5, M6 and M21 themselves, are believed to be novel. The Table provides a number identifying the compound, its structurer, molecular weight and its cluster (i.e., whether the compound resembles M5, M6 or M21). The three columns relations to PI uptake describe the results of screening the compounds in the type of assay from Example 1. […] The last two columns show an effect on proliferation of Weri retinoblastoma or HeLa cervical cancer cells. Inhibition of proliferation is a measure of anti-neoplastic activity. […] If no data is shown, no test was performed.

cancer cell lines = test: Cell proliferation studies, cancer cell lines in general; format: cell-based; conditions: summary statement
Description: (§2) Cells were grown to 70% confluency, trypsinized, counted, and seeded in 96-well flat-bottom plates at a final concentration of 2.5×10^3-5.0×10^3 cells/well in growth media containing 5% FBS (Day 0). Other well sizes and cell densities were used successfully as well. Cells were allowed to incubate in growth media for 24 hours to allow for maximum adhesion. Treatment with the test agent began on Day 1 and continued for 72 hours either with or without retreatment. At the 72 hour time point, viable cell numbers are quantified by the CellTiter-Glo® cell viability assay as described above, or using standard MTT, SRB or BrDU assays. Experiments were repeated at least twice with the same concentrations to determine growth inhibitory activity. […] In an alternative format, this assay was used to screen potential TRPM7 inhibitory compounds at a fixed concentration, usually 5 or 10 uM. Alternatively, lower or higher concentrations were used. […] Thus, for the compounds in Table 1, all are potential anti-cancer agents. Some, like 399 and 509, are more general and may be effective against a wide range of cancers. Others, like 2785, are more specific and may be effective against a subset of cancers.
(§3) Data Collection—For the cell proliferation studies, data from each experiment was collected and expressed as % Cell Growth using the following calculation: % Cell Growth=(ftest/fvehicle)×100 Where ftest is the luminescent signal of the tested sample, and fvehicle is the luminescence of the vehicle in which the drug is dissolved (or appropriate measure for the other viability/proliferation measures). Dose response graphs and IC50 values were generated using standard software using the following variable slope equation: […]

[2] = system: neurons, hepatocytes, cardiomyocytes, retina; test: Survival after anoxia in cells and tissues; format: cell-based; conditions: summary statement
TRPM7 [3] = target: TRPM7 (Homo sapiens, UniProt Q96QT4); conditions: Nadler et al., Jiang et al.; read-out: IC50 for inhibition of TRPM7; cited from earlier work
Weri cells = test: Cell proliferation assay, Weri retinoblastoma cells; format: cell-based
Description: as §2, §3, §1

[4] = Table X, the lower the number, the more potent in protecting against cell death
[5] = Table X, the lower the number, the more potent
[6] = Table Y, commercially available compounds

T2 sequence (Q923J1 whole entry): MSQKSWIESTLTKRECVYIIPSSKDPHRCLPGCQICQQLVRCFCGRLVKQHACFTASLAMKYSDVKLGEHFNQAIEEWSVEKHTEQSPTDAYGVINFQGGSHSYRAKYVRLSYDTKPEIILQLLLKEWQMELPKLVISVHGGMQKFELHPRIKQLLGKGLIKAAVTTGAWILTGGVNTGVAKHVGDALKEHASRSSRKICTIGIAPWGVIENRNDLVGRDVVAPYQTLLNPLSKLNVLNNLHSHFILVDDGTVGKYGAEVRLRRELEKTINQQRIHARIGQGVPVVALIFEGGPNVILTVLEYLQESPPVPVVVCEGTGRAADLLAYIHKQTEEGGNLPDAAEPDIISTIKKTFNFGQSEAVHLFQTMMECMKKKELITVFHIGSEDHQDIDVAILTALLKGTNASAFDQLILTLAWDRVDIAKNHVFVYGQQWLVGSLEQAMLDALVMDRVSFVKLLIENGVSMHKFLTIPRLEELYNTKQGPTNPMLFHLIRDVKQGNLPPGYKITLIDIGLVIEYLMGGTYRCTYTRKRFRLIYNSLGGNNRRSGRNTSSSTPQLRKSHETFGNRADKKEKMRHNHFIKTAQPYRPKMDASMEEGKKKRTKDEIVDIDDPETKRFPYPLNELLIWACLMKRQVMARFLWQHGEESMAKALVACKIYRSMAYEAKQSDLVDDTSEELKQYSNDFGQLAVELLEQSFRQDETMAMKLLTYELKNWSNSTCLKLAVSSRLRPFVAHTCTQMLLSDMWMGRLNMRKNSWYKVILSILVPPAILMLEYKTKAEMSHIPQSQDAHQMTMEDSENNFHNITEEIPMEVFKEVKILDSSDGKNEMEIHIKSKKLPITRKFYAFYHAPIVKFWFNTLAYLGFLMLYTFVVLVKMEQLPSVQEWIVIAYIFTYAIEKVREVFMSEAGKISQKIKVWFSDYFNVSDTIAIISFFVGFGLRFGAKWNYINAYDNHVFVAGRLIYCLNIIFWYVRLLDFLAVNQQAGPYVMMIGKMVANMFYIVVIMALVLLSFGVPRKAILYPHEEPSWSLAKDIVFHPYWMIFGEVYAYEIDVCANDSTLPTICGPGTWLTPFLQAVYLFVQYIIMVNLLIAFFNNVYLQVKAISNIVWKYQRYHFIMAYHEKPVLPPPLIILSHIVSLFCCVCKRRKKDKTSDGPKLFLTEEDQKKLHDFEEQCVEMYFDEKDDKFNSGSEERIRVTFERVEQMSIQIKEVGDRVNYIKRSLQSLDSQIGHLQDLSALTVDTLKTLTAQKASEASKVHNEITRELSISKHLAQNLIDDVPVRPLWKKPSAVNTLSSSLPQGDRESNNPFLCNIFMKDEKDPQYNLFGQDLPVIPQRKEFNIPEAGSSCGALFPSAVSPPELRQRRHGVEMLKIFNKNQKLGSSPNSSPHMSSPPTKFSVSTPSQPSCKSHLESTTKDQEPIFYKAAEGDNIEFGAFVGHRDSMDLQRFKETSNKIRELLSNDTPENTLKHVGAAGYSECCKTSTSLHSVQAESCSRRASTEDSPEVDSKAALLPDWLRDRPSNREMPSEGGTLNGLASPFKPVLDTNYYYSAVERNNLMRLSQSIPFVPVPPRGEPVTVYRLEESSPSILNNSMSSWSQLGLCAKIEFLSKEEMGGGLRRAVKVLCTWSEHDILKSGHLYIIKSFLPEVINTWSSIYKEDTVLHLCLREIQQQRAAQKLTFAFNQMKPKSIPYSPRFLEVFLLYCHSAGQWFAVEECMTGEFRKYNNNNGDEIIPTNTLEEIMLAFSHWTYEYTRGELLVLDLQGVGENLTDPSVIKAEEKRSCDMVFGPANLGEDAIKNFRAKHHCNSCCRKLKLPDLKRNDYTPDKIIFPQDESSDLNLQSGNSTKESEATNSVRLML
T1 sequence (Q923J1 whole entry): as above
Sequence of TRPM7 (Homo sapiens, UniProt Q96QT4) (Q96QT4 whole entry, species assumed): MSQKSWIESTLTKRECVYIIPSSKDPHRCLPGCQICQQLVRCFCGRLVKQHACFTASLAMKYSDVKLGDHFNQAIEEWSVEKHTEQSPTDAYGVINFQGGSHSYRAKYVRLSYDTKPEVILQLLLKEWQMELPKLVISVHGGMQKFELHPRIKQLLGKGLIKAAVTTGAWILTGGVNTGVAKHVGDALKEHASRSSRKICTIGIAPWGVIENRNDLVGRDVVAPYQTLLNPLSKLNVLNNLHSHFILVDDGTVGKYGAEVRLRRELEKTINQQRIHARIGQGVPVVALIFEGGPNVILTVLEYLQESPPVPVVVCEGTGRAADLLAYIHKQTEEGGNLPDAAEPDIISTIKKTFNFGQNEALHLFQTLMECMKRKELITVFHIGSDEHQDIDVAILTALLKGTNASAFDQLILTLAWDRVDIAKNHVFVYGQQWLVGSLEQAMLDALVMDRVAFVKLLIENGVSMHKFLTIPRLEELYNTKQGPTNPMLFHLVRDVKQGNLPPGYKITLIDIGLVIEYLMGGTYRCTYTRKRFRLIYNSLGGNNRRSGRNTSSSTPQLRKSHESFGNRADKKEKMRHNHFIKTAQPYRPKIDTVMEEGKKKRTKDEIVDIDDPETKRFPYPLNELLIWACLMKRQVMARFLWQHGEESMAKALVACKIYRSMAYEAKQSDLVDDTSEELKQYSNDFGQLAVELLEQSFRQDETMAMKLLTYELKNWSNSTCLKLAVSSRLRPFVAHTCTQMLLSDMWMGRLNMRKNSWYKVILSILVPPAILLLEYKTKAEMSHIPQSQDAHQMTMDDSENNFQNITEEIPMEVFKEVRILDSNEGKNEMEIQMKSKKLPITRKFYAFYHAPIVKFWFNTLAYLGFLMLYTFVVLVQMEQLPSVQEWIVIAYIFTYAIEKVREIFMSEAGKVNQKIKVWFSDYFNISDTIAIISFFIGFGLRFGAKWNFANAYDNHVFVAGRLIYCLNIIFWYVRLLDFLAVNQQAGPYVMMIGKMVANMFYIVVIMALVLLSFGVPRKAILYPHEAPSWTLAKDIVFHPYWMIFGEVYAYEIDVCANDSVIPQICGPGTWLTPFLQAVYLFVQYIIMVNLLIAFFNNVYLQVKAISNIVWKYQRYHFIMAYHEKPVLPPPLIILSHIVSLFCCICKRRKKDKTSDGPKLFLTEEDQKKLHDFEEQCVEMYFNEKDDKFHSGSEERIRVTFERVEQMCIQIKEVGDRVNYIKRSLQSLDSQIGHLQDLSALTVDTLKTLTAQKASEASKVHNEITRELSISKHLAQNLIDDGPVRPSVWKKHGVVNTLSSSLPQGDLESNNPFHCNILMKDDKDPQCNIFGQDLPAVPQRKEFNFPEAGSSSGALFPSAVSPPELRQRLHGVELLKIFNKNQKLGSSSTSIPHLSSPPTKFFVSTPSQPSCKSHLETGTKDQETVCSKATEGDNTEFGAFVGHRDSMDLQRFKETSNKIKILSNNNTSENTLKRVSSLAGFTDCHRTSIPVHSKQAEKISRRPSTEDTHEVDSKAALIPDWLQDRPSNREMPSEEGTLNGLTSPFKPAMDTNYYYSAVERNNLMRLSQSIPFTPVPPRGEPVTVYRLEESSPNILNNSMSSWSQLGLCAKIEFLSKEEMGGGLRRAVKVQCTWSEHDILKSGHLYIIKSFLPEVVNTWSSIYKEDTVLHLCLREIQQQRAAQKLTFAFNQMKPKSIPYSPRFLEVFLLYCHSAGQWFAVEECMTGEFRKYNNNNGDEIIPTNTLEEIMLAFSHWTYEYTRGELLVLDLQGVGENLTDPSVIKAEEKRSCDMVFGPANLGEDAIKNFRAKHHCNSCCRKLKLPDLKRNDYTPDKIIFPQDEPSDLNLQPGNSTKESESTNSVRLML

Row | Structure (SMILES) | Normalized ratio of PI uptake (5 μM) (TRPM7 [1]; [4]) | Normalized ratio of PI uptake (10 μM) (TRPM7 [1]; [5]) | IC50 (TRPM7 [1]; Table X) | TRPM7 current (TRPM7 ion channel) | also measured
1 | O=C(NC1CCCc2ccccc21)c1sc2ccccc2c1Cl (stereo not drawn) [Compound 97] | 0 | 0.084 | 1.24 µM | 5 μM (Those that provide >10% inhibition of TRPM7 channel activity in the HEK293 cell system were labeled with the concentration tested (generally 5 uM)) | 
2 | COc1cc2c(cc1OC)C(c1sc3ccccc3c1Cl)=NCC2 [Compound M6] |  |  |  |  | inhibition of proliferation of cancer cell lines (cancer cell lines): effective in inhibiting proliferation of various cancer cell lines; survival after anoxia [2]: effective in increasing survival after anoxia in neurons and cardiomyocytes
3 | Fc1cccc2c1CCNC2c1sc2ccccc2c1Cl (stereo not drawn) [Compound 123] | 0.356 | 0.128 | 4.18 µM | 5 μM (Those that provide >10% inhibition of TRPM7 channel activity in the HEK293 cell system were labeled with the concentration tested (generally 5 uM)) | 
4 | COc1cc2c(cc1OC)C(c1sc3cc(OC)c(OC)cc3c1Cl)=NCC2 [Compound 120] | 0.079 | 0.066 | 2.55 µM | 5 μM (Those that provide >10% inhibition of TRPM7 channel activity in the HEK293 cell system were labeled with the concentration tested (generally 5 uM)) | 
5 | [Mg+2] [Mg^2+, magnesium] |  |  |  |  | IC50 (TRPM7 [3]): ~600000 nM
6 | COc1ccccc1C(C)N(C)C(=O)c1cc2ccccc2s1 (stereo not drawn) [T6681713 #6, reference compound] |  |  |  |  | Normalized ratio of PI uptake (5 μM) (TRPM7 [1]; [6]): 0.328; Normalized ratio of PI uptake (10 μM) (TRPM7 [1]; [6]): 0.059; IC50 (TRPM7 [1]; [6]): 5.48 µM; inhibition at 5 µM (Weri cells): 9%; inhibition at 10 µM (Weri cells): 33%
7 | Cc1ccc2c(c1)CCCN2C(=O)c1sc2ccccc2c1Cl [Compound M5] |  |  |  |  | inhibition of proliferation of cancer cell lines (cancer cell lines): effective in inhibiting proliferation of various cancer cell lines; survival after anoxia [2]: effective in increasing survival after anoxia in neurons, hepatocytes, cardiomyoctes, and retina
8 | Cc1c(Cc2ccc(Cl)c(Cl)c2)c(=O)oc2cc(O)cc(O)c12 [Compound 131] | 0.29 | 0.03 | 3.42 µM | 5 μM (Those that provide >10% inhibition of TRPM7 channel activity in the HEK293 cell system were labeled with the concentration tested (generally 5 uM)) | 
9 | COc1ccc2cc(C(=O)N(C)Cc3ccccc3N3CCCC3)[nH]c2c1 [T6899266 #9, reference compound] |  |  |  |  | Normalized ratio of PI uptake (5 μM) (TRPM7 [1]; [6]): 0.029; Normalized ratio of PI uptake (10 μM) (TRPM7 [1]; [6]): 0; IC50 (TRPM7 [1]; [6]): 2.32 µM; inhibition at 5 µM (Weri cells): 18%; inhibition at 10 µM (Weri cells): 42%
10 | Cc1cccc2sc(C3=NCCc4c(F)cccc43)c(Cl)c12 [Compound 117] | 0.02 | 0.07 | 1.67 µM | 5 μM (Those that provide >10% inhibition of TRPM7 channel activity in the HEK293 cell system were labeled with the concentration tested (generally 5 uM)) | 
11 | COc1cccc2c1CCNC2c1sc2ccccc2c1Cl (stereo not drawn) [Compound 121] | 0.053 | 0.036 | 1.4 µM | 5 μM (Those that provide >10% inhibition of TRPM7 channel activity in the HEK293 cell system were labeled with the concentration tested (generally 5 uM)) | 
